{"source": "patent US20250248432A1", "about": "“MIXTURE COMPRISING D-ALLULOSE AND TASTE MODIFYING COMPOUNDS” (SYMRISE AG, priority 2019, published 2025)", "origin": "cited, not measured here", "conditions": "relative to sucrose"}
{"compound": "O=C(CO)C(O)C(O)C(O)CO", "note": "[Allulose, D-allulose]", "values": [{"measurement": "sweetness intensity of sucrose", "value": "about 70%"}]}
